How the values were obtained:
Test in all cases: microbe, parasite or virus in culture
Type in all cases: cell-based
[1] = system: clinically isolated HIV strain A-2-001; conditions: Human immunodeficiency virus 1, 72 h, read-out: EC50, Virus Strains A-2-001
Procedure: (§1) The compounds were tested in a cellular assay using the MT4-LTR-EGFP cells for anti-viral activity. […] Because of the increasing emergence of drug resistant HIV strains, the present compounds were tested for their potency against clinically isolated HIV strains harboring several mutations. […] The viral strains A, B, C and D contain mutations as indicated below in Table 2.
(§2) The cellular assay was performed according to the following procedure. HIV- or mock-infected MT4-LTR-EGFP cells were incubated for three days in the presence of various concentrations of the compounds according to the invention. Upon infection, the viral tat protein activates the GFP reporter. At the end of the incubation period, the GFP signal was measured. […] The inhibitory activity of the compound was monitored on the virus-infected cells and was expressed as EC50. These values represent the amount of the compound required to protect 50% of the cells from virus infection.

[2] = system: clinically isolated HIV strain B-2-001; conditions: Human immunodeficiency virus 1, 72 h, read-out: EC50, Virus Strains B-2-001
Procedure: as §1, §2

[3] = system: clinically isolated HIV strain C-2-001; conditions: Human immunodeficiency virus 1, 72 h, read-out: EC50, Virus Strains C-2-001
Procedure: as §1, §2

[4] = system: clinically isolated HIV strain D-2-001; conditions: Human immunodeficiency virus 1, 72 h, read-out: EC50, Virus Strains D-2-001
Procedure: as §1, §2

[5] = system: wild type laboratory HIV strain (WT IIIB-2-001); conditions: Human immunodeficiency virus 1, IIIB, 72 h, read-out: EC50, Virus Strains WT IIIB-2-001
Procedure: as §1, §2

Compound	EC50 [1] [µM]	EC50 [2] [µM]	EC50 [3] [µM]	EC50 [4] [µM]	EC50 [5] [µM]
CC(C)CN(C[C@@H](O)[C@H](Cc1ccccc1)NC(=O)O[C@H]1CO[C@H]2OCC[C@H]21)S(=O)(=O)c1ccc(N)c(NCc2ccccn2)c1 [Compound 80, [3-({4-amino-3-[(pyridin-2-ylmethyl)-amino]-benzenesulfonyl}-isobutyl-amino)-1-benzyl-2-hydroxy-propyl]-carbamic acid hexahydro-furo[2,3-b]furan-3-yl ester]	0.00148	0.0933	0.0145	0.0389	0.00891
CC(C)CN(CC(O)C(Cc1ccccc1)NC(=O)OC1COC2OCCC12)S(=O)(=O)c1ccc(N)c(NCc2ccc(F)cc2F)c1 (stereo not shown) [Compound 78, (3-{[4-amino-3-(2,4-difluoro-benzylamino)-benzenesulfonyl]-isobutyl-amino}-1-benzyl-2-hydroxy-propyl)-carbamic acid hexahydro-furo[2,3-b]furan-3-yl ester]	0.000617	0.135	0.01	0.0355	0.00363

Source: patent publication US8084494B2, “Substituted aminophenylsulfonamide compounds as HIV protease inhibitor” (priority 2005, dated 2011)
